The values that follow come from US10947289B2, “Glyco-modified atrial natriuretic peptide” (priority 2013, dated 2021).

This assay deals with T1, human GC-A (Homo sapiens, UniProt P16066).
T1 construct: expressed in transfected cells; host or cells: CHO cells
T1 sequence (P16066 33-1061): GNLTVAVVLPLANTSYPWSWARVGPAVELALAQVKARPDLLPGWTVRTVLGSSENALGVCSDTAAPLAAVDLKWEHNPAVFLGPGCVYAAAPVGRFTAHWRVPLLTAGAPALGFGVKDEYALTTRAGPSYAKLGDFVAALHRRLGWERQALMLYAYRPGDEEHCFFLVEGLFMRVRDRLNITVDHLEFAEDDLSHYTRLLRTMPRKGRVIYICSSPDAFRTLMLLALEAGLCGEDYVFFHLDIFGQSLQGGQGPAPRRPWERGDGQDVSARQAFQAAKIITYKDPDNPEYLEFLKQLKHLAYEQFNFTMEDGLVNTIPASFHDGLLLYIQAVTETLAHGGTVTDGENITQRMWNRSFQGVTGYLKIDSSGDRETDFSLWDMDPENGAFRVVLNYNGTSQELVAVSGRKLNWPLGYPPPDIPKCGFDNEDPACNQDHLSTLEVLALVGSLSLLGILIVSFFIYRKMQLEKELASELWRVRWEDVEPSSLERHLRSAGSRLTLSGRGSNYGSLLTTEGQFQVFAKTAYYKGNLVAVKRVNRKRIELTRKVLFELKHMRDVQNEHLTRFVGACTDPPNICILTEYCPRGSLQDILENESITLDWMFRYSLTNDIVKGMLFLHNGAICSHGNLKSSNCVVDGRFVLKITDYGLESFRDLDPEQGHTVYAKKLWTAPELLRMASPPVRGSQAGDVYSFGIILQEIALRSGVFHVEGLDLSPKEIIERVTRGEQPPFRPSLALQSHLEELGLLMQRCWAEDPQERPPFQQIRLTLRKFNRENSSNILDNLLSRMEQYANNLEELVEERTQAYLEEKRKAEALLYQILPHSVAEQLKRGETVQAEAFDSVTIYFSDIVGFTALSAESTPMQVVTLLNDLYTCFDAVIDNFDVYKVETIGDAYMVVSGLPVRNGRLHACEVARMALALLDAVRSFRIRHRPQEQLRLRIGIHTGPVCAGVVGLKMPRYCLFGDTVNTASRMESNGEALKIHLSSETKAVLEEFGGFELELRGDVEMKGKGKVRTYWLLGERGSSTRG
The assay is described as follows: cGMP elevating activity in CHO/human GC-A cells (Test Example 1). The format is cell-based. The following applies: for Emax: maximum T/C in range 0.01-100 nM, solvent only = 0, 1 nM ANP = 1. The protocol:
The cGMP elevating activity of each modified peptide prepared in Example 2 was measured by the following method:
CHO/human GC-A cells, which are CHO cells constitutively expressing human GC-A, were suspended at 2×10^5 cells/ml in α-MEM, 10% FBS, and 1% penicillin-streptomycin, inoculated at 20 μl/well (4×10^3 cells/well) onto a 384-well plate (Corning, 3826), and cultured overnight in a CO2 incubator. On the next day, the medium was removed from this plate, and then, 1.6 mM IBMX/KRB buffer was added thereto at 10 μl/well. The mixture was stirred on a plate shaker and then incubated at room temperature for 10 minutes. […] The mixture was stirred on a plate shaker and then incubated for 15 minutes in a CO2 incubator. Thereafter, a lysis buffer (50 mM phosphate buffer, pH 7.0, and 1% Triton X-100) was added thereto at 5 μl/well. The cells were lysed by stirring for 10 minutes on a plate shaker. Subsequently, the cGMP levels in the cell lysates were measured by use of a cGMP kit (manufactured by Cisbio Bioassays). Specifically, to a 384-well plate (Greiner, 784076), 5 μl/well of a diluent attached to the kit, 5 μl/well of the cell lysate, 5 μl/well of cGMP-d2, and 5 μl/well of anti cGMP-Cryptate were added. The mixture was stirred on a plate shaker and then incubated overnight at 4° C. in the dark, followed by the measurement of homogeneous time-resolved fluorescence using RubyStar (manufactured by BMG LABTECH JAPAN Ltd.). The activity value (T/C) of the test substance at each concentration was calculated when the activity value of a well supplemented with only a solvent was defined as 0 and the activity value of a well supplemented with 1 nM ANP was defined as 1.

Where [1] appears, read: CHO/human GC-A cells, concentration at T/C=0.5, 15 minutes incubation, read-out: EC50.

Like-named read-outs stand apart in the source and are kept apart here.

Compound `CC[C@H](C)[C@@H]1NC(=O)[C@H](CCCNC(=N)N)NC(=O)[C@H](CC(=O)O)NC(=O)[C@H](CCSC)NC(=O)[C@H](CCCNC(=N)N)NC(=O)CNC(=O)CNC(=O)[C@H](Cc2ccccc2)NC(=O)[C@@H](NC(=O)[C@H](CO)NC(=O)[C@H](CO)NC(=O)[C@H](CCCNC(=N)N)NC(=O)[C@H](CCCNC(=N)N)NC(=O)[C@H](CC(C)C)NC(=O)[C@H](CO)NC(=O)CNC(=O)[C@H](CO)NC(=O)CNC(=O)[C@H](CO)NC(=O)CNC(=O)[C@H](CO)NC(=O)[C@H](CC(=O)N[C@@H]2O[C@H](CO)[C@@H](O[C@@H]3O[C@H](CO)[C@@H](O[C@@H]4O[C@H](CO[C@H]5O[C@H](CO)[C@@H](O)[C@H](O)[C@@H]5O[C@@H]5O[C@H](CO)[C@@H](O[C@@H]6O[C@H](CO[C@]7(C(=O)O)C[C@H](O)[C@@H](NC(C)=O)[C@H]([C@H](O)[C@H](O)CO)O7)[C@H](O)[C@H](O)[C@H]6O)[C@H](O)[C@H]5NC(C)=O)[C@@H](O)[C@H](O[C@H]5O[C@H](CO)[C@@H](O)[C@H](O)[C@@H]5O[C@@H]5O[C@H](CO)[C@@H](O[C@@H]6O[C@H](CO[C@]7(C(=O)O)C[C@H](O)[C@@H](NC(C)=O)[C@H]([C@H](O)[C@H](O)CO)O7)[C@H](O)[C@H](O)[C@H]6O)[C@H](O)[C@H]5NC(C)=O)[C@@H]4O)[C@H](O)[C@H]3NC(C)=O)[C@H](O)[C@H]2NC(C)=O)NC(=O)CO[C@@H]2O[C@H](CO)[C@@H](O[C@@H]3O[C@H](CO)[C@@H](O[C@@H]4O[C@H](CO[C@H]5O[C@H](CO)[C@@H](O)[C@H](O)[C@@H]5O[C@@H]5O[C@H](CO)[C@@H](O[C@@H]6O[C@H](CO[C@]7(C(=O)O)C[C@H](O)[C@@H](NC(C)=O)[C@H]([C@H](O)[C@H](O)CO)O7)[C@H](O)[C@H](O)[C@H]6O)[C@H](O)[C@H]5NC(C)=O)[C@@H](O)[C@H](O[C@H]5O[C@H](CO)[C@@H](O)[C@H](O)[C@@H]5O[C@@H]5O[C@H](CO)[C@@H](O[C@@H]6O[C@H](CO[C@]7(C(=O)O)C[C@H](O)[C@@H](NC(C)=O)[C@H]([C@H](O)[C@H](O)CO)O7)[C@H](O)[C@H](O)[C@H]6O)[C@H](O)[C@H]5NC(C)=O)[C@@H]4O)[C@H](O)[C@H]3NC(C)=O)[C@H](O)[C@H]2NC(C)=O)CSSC[C@@H](C(=O)N[C@@H](CC(N)=O)C(=O)N[C@@H](CO)C(=O)N[C@@H](Cc2ccccc2)C(=O)N[C@@H](CCCNC(=N)N)C(=O)N[C@@H](Cc2ccc(O)cc2)C(=O)O)NC(=O)CNC(=O)[C@H](CC(C)C)NC(=O)CNC(=O)[C@H](CO)NC(=O)[C@H](CCC(N)=O)NC(=O)[C@H](C)NC(=O)CNC1=O` [Compound 2-36, SG-(SG-)Asn-(Ser-Gly)3-hANP(1-28)] returned an EC50 of 0.39 nM.

As to “[(SG-)Cys-Gly]5-hANP(1-28) [Compound 2-17]”, the Emax came out at 0.70. The EC50 under setting [1] came to 35 nM.

“SG2-(SG2-)Lys-[SG2-(SG2-)-Lys-]Lys-PEG(3)-hANP(1-28) [Compound 2-20]”: the Emax was 0.59. The EC50 under setting [1] worked out at 64 nM.

The term EC50 denotes the concentration giving half of the maximal effect.
